Several values for one entry are separate records, joined by “and”; a condition that tells them apart may be missing. Equal values may be shown once. Read-outs that look alike come from different tables or passages of the source.
Experiments:
[1] = test system: rats; assay: In vivo hypnotic/anesthetic activity, time to recovery of righting reflex; parameters: species or system rat; conditions: for Anesthesia Activity (Time to awakening, min): rats, tail vein injection in DMSO, 28 μmol/kg (5 mg/kg for propofol); for Time to Awakening (h) [mean ± SD, (N)] / time rats were asleep at LD10: rat
Description: (§1) To determine the binding constant (KD) of propofol and its analogs for GABAA Cl channel, binding was determined as in Example 25 in presence of increasing concentration of propofol and the KD determined graphically using the Hill plots. In vivo hypnotic activity was determined as follows. Drugs solubilized in DMSO were administered to rats by tail vein injection (N=5 rats per group). A dose level of 28 μmol/kg (5 mg/kg for propofol) was used to compensate for differences in molecular weight of the analogs. Anesthetic activity in vivo was determined as time to recovery of righting reflex following administration of the compounds.
(§2) Dose escalation experiment was performed in rat in order to compare the toxicity and the pharmacodynamic of CT8 against propofol. Drugs solubilized in DMSO were administered to rats (5 rats per group). Anesthetic activity in vivo was determined as time to recovery of righting reflex. Mortality was also monitored and the LD50 curves for propofol and CT8 constructed. In order to adjust for the differences in molecular weight between the two compounds, μmol/kg dose was used.

[2] = test system: rats; assay: Dose escalation toxicity, mortality and LD curves; conditions: rat; for calculated LD10: drugs in DMSO
Description: as §2

[3] = rat; for V1 / V2: single i.v. bolus in DMSO, propofol 5 mg/kg, CT8 10 mg/kg
[4] = target: GABAA Cl channel; assay: Competitive binding assay, GABAA Cl channel (3H-TBOB), bovine hippocampus; conditions: for IC50: read-out: GABAA CI Channel Binding (IC50); for Percent Inhibition, chloride channel: propofol at 10^-4 M
Description: (§3) The propofol binding site on GABAA was defined using a series of competitive binding assays. Frozen bovine hippocampus was thawed and homogenized in 40 volumes of ice-cold 0.32 M sucrose. The suspension was centrifuged at 1000×g for 10 minutes at 4° C. The pellet was washed twice in assay buffer and reacted with radioactive ligand in presence or absence of propofol at 10−4 M final concentration. The amount of radioactivity remained on the Whatman filter following filtration of the reaction mix and two washes with assay buffer was determined using a liquid scintillation counter. Inhibition of radioactive ligand binding by propofol represents the competitive binding of propofol to the same site as the radioactive ligand. GABAA agonist site, GABAA α-1 site, GABAA α-5 site, GABAA α-6 site, and GABAA Cl channel were assayed using ^3H-GABA, ^3H-Flunitrazepam, ^3H-RY80, ^3H-Ro 15-4513, and ^3H-TBOB.
as §1

[5] = in vivo; conditions: male, Sprague-Dawley, rat, whole blood, iv
[6] = test system: GABAA agonist site; conditions: propofol at 10^-4 M, 3H-GABA
Description: as §3

[7] = test system: GABAA alpha 2 site; conditions: propofol at 10^-4 M
Description: as §3

[8] = test system: GABAA α-1 site; conditions: propofol at 10^-4 M, 3H-Flunitrazepam
Description: as §3

[9] = test system: GABAA α-6 site; conditions: propofol at 10^-4 M, 3H-Ro 15-4513
Description: as §3

[10] = increasing concentration, Hill plots

CC(C)c1cc(C(=O)c2ccc(F)cc2)cc(C(C)C)c1O [CT7, (4-fluorophenyl)-(4-hydroxy-3,5-diisopropylphenyl)methanone]
Anesthesia Activity (Time to awakening, min) [1]: 34.2 ± 1.2, N = 2 min

CC(C)c1cc(C(=O)c2ccc(C(F)(F)F)cc2)cc(C(C)C)c1O [CT8, (4-(trifluoromethyl)phenyl)-(4-hydroxy-3,5-diisopropylphenyl)methanone]
Mortality (%) ([2]; dose 1.427959 μmol/kg): 0%
Mortality (%) ([2]; dose 2.855919 μmol/kg): 0%
Mortality (%) ([2]; dose 14.2796 μmol/kg): 0%
Mortality (%) ([2]; dose 28.55919 μmol/kg): 10%
Mortality (%) ([2]; dose 57.11838 μmol/kg): 40%
Mortality (%) ([2]; dose 114.2368 μmol/kg): 100%
Mortality (%) ([2]; dose 228.4735 μmol/kg): 100%
calculated LD10 [2]: 29 µmol/kg
AUC, fold higher than that of propofol ([3]; i.v. bolus, ratio to propofol): 317 ×
CL, fold slower than propofol ([3]; i.v. bolus, ratio to propofol): 146 ×
V1, fold smaller than that of propofol ([3]; i.v. bolus, ratio to propofol): 375 ×
V2, fold smaller than that of propofol ([3]; i.v. bolus, ratio to propofol): 11 ×
Vss, fold smaller than that of propofol ([3]; i.v. bolus, ratio to propofol): 14 ×
V1 [3]: 0.04 L/kg
V2 [3]: 5.2 L/kg
IC50 [4, 10]: 570 nM
Time to Awakening (h) [mean ± SD, (N)] ([1]; dose 1.43 μmol/kg): 0.000 ± 0.000, (5) h
Time to Awakening (h) [mean ± SD, (N)] ([1]; dose 2.86 μmol/kg): 0.000 ± 0.000, (5) h
Time to Awakening (h) [mean ± SD, (N)] ([1]; dose 14.28 μmol/kg): 0.748 ± 0.094, (5) h
Time to Awakening (h) [mean ± SD, (N)] ([1]; dose 28.10 μmol/kg): 1.543 ± 0.085, (4) h
Time to Awakening (h) [mean ± SD, (N)] ([1]; dose 28.56 μmol/kg): 1.728 ± 0.154 (5) h
Time to Awakening (h) [mean ± SD, (N)] ([1]; dose 57.12 μmol/kg): 3.553 ± 0.166, (3) h
time rats were asleep at LD10 [1]: 1.73 h
Vd [5]: 5.3 L/kg
clearance [5]: 1.33 mL/min/kg

CC(C)c1cc(C(=O)c2ccc([N+](=O)[O-])cc2)cc(C(C)C)c1O [CY61, (4-hydroxy-3,5-diisopropylphenyl)-(4-nitrophenyl)methanone]
IC50 [4, 10]: 500 nM
Anesthesia Activity (Time to awakening, min) [1]: 57.2 ± 0.7, N = 5 min

CC(C)c1cc(C(=O)c2ccc(C(F)(F)F)c(F)c2)cc(C(C)C)c1O [CY93, (3-fluoro-4-(trifluoromethyl)phenyl)-(4-hydroxy-3,5-diisopropylphenyl)methanone]
IC50 [4, 10]: 1270 nM
Anesthesia Activity (Time to awakening, min) [1]: 52.4 ± 37.7, N = 3 min

CC(C)c1cc(C(=O)c2cccc(C(F)(F)F)c2)cc(C(C)C)c1O [CY96, (3-(trifluoromethyl)phenyl)-(4-hydroxy-3,5-diisopropylphenyl)methanone]
IC50 [4, 10]: 3910 nM
Anesthesia Activity (Time to awakening, min) [1]: 5.5 ± 2.4, N = 5 min

CC(C)c1cc(C(=O)c2cc(F)cc(C(F)(F)F)c2)cc(C(C)C)c1O [CY97, (3-fluoro-5-(trifluoromethyl)phenyl)-(4-hydroxy-3,5-diisopropylphenyl)methanone]
IC50 [4, 10]: 4670 nM
Anesthesia Activity (Time to awakening, min) [1]: 1.9 ± 1.0, N = 5 min

CC(C)c1cc(C(=O)c2ccc3ccccc3c2)cc(C(C)C)c1O [CY99, (4-hydroxy-3,5-diisopropylphenyl)-(naphthalen-2-yl)methanone]
GABAA CI Channel Binding (IC50, μM) [4, 10]: No activity
Anesthesia Activity (Time to awakening, min) [1]: 5.5 ± 3.4, N = 5 min

CC(C)c1cc(C(=O)c2cc(C(F)(F)F)cc(C(F)(F)F)c2)cc(C(C)C)c1O [CY104, (3,5-bis(trifluoromethyl)phenyl)-(4-hydroxy-3,5-diisopropylphenyl)methanone]
IC50 [4, 10]: 21300 nM
Anesthesia Activity (Time to awakening, min) [1]: 6.4 ± 2.8, N = 4 min

CC(C)c1cc(C(=O)c2ccc(C(C)(C)C)cc2)cc(C(C)C)c1O [CY120, (4-tert-butylphenyl)-(4-hydroxy-3,5-diisopropylphenyl)methanone]
Anesthesia Activity (Time to awakening, min) [1]: 15.5 ± 9.2, N = 2 min

CC(C)Cc1ccc(C(=O)c2cc(C(C)C)c(O)c(C(C)C)c2)cc1 [CY122, (4-hydroxy-3,5-diisopropylphenyl)-(4-isobutylphenyl)methanone]
Anesthesia Activity (Time to awakening, min) [1]: 7.6 ± 1.8, N = 5 min

CON=C(c1ccc(C(F)(F)F)cc1)c1cc(C(C)C)c(O)c(C(C)C)c1 [CY127, 4-((4-(trifluoromethyl)phenyl)-(methoxyimino)methyl)-2,6-diisopropylphenol]
Anesthesia Activity (Time to awakening, min) [1]: 8.8 ± 5.8, N = 5 min

CC(C)c1cc(Cc2ccc(C(F)(F)F)cc2)cc(C(C)C)c1O [CY130, 4-(4-(trifluoromethyl)benzyl)-2,6-diisopropylphenol]
Anesthesia Activity (Time to awakening, min) [1]: 8.2 ± 3.0, N = 5 min

CC(C)c1cc(C(O)c2ccc(C(F)(F)F)cc2)cc(C(C)C)c1O (stereo not drawn) [CY135, 4-((4-(trifluoromethyl)phenyl)-(hydroxy)methyl)-2,6-diisopropylphenol]
Anesthesia Activity (Time to awakening, min) [1]: 15.0 ± 11.4, N = 5 min

CC(C)c1cc(C(=O)c2ccc(I)cc2)cc(C(C)C)c1O [CY155, (4-hydroxy-3,5-diisopropylphenyl)-(4-iodophenyl)methanone]
IC50 [4, 10]: 570 nM

COc1ccc(C(=O)c2cc(C(C)C)c(O)c(C(C)C)c2)cc1 [CY157, (4-hydroxy-3,5-diisopropylphenyl)-(4-methoxyphenyl)methanone]
Anesthesia Activity (Time to awakening, min) [1]: 0.0 + 0.0, N = 5 min

CC(C)c1cc(C(=O)c2ccc(C#N)cc2)cc(C(C)C)c1O [CY175, (4-cyanophenyl)-(4-hydroxy-3,5-diisopropylphenyl)methanone]
Anesthesia Activity (Time to awakening, min) [1]: 43.4 ± 23.5, N = 2 min

CC(C)c1cc(C(=O)c2ccc(C(F)(F)F)nc2)cc(C(C)C)c1O [CY176, (6-(trifluoromethyl)pyridin-3-yl)-(4-hydroxy-3,5-diisopropylphenyl)methanone]
Anesthesia Activity (Time to awakening, min) [1]: 14.9 + 21.1, N = 2 min

CC(C)c1cc(C(=O)c2ccc(S(C)(=O)=O)cc2)cc(C(C)C)c1O [CY177]
Anesthesia Activity (Time to awakening, min) [1]: 4.6 ± 1.5, N = 5 min

CC(C)c1cc(C(=O)c2ccc(Br)cc2)cc(C(C)C)c1O [CY178, (4-bromophenyl)-(4-hydroxy-3,5-diisopropylphenyl)methanone]
Anesthesia Activity (Time to awakening, min) [1]: 66.6 ± 17.9, N = 5 min

CCCc1ccc(C(=O)c2cc(C(C)C)c(O)c(C(C)C)c2)cc1 [CY181, (4-hydroxy-3,5-diisopropylphenyl)-(4-propylphenyl)methanone]
Anesthesia Activity (Time to awakening, min) [1]: 9.0 + 20.1, N = 5 min

CC(C)c1cc(C(=O)c2ccc(Cl)cc2)cc(C(C)C)c1O [CY182, (4-chlorophenyl)-(4-hydroxy-3,5-diisopropylphenyl)methanone]
Anesthesia Activity (Time to awakening, min) [1]: 67.7 ± 5.1, N = 3 min

CC(C)c1cccc(C(C)C)c1O [Propofol, 2,6-diisopropylphenol]
Mortality (%) ([2]; dose 5.609469 μmol/kg): 0%
Mortality (%) ([2]; dose 28.04734 μmol/kg): 10%
Mortality (%) ([2]; dose 56.09469 μmol/kg): 80%
Mortality (%) ([2]; dose 112.1894 μmol/kg): 100%
calculated LD10 [2]: 28 µmol/kg
V1 [3]: 15.0 L/kg
V2 [3]: 58.0 L/kg
IC50 [4, 10]: 4860 nM
Percent Inhibition, chloride channel [4]: only inhibited the binding of TBOB
Percent Inhibition, chloride channel ([4]; listed as propofol): 117.52%
Percent Inhibition, agonist site [6]: No significant inhibition
Percent Inhibition, agonist site ([6]; listed as propofol): 12.48%
Percent Inhibition, alpha 2 site [7]: No significant inhibition
Percent Inhibition, alpha 2 site ([7]; listed as propofol): −15.58%
Percent Inhibition, alpha 1 site [8]: No significant inhibition
Percent Inhibition, alpha 1 site ([8]; listed as propofol): −14.31%
Percent Inhibition, alpha 6 site [9]: No significant inhibition
Percent Inhibition, alpha 6 site ([9]; listed as propofol): −0.89%
Time to Awakening (h) [mean ± SD, (N)] ([1]; dose 5.61 μmol/kg): 0.000 ± 0.000, (5) h
Time to Awakening (h) [mean ± SD, (N)] ([1]; dose 28.05 μmol/kg): 0.346 ± 0.149, (4) h and 0.350 ± 0.228 (5) h
Time to Awakening (h) [mean ± SD, (N)] ([1]; dose 56.09 μmol/kg): 0.600 ± 0.000, (1) h
time rats were asleep at LD10 [1]: 0.35 h
Vd [5]: 73 L/kg
clearance [5]: 195 mL/min/kg

Reference: patent US7586008B2, “Propofol analogs, process for their preparation, and methods of use” (Abraxis Bioscience, Inc., priority 2003, dated 2009)
